US5707966A, “Antithrombotic agents” (Eli Lilly and Company, priority 1995, dated 1998)
Where a name gives a salt, the structure may show the parent alone. Read-outs that look alike come from different tables or passages of the source.

How the values were obtained:
Assay type in all cases: biochemical
Bovine trypsin = biological target: T1, Bovine trypsin (Bos taurus, UniProt P00760); test: Kass with trypsin, chromogenic substrate; details: substrate N-Benzoyl-Phe-Val-Arg-p-nitroanilide
T1 construct: Bovine trypsin is purchased; purchased Worthington Biochemicals, Freehold, N.J
T1 sequence (P00760 24-246): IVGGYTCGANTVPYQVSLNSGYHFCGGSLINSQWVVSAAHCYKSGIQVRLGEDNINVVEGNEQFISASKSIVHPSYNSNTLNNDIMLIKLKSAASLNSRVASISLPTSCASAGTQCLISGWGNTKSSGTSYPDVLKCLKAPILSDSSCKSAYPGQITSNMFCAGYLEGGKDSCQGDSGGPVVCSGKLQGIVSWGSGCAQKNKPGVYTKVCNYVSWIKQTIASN

Human plasmin = biological target: T2, Human plasmin (Homo sapiens, UniProt P00747); test: Kass with plasmin, chromogenic substrate; details: substrate H-D-Val-Leu-Lys-p-nitroanilide
T2 construct: Human plasmin is purchased; purchased Boehringer Mannheim, Indianapolis, Ind
T2 sequence (P00747 97-810): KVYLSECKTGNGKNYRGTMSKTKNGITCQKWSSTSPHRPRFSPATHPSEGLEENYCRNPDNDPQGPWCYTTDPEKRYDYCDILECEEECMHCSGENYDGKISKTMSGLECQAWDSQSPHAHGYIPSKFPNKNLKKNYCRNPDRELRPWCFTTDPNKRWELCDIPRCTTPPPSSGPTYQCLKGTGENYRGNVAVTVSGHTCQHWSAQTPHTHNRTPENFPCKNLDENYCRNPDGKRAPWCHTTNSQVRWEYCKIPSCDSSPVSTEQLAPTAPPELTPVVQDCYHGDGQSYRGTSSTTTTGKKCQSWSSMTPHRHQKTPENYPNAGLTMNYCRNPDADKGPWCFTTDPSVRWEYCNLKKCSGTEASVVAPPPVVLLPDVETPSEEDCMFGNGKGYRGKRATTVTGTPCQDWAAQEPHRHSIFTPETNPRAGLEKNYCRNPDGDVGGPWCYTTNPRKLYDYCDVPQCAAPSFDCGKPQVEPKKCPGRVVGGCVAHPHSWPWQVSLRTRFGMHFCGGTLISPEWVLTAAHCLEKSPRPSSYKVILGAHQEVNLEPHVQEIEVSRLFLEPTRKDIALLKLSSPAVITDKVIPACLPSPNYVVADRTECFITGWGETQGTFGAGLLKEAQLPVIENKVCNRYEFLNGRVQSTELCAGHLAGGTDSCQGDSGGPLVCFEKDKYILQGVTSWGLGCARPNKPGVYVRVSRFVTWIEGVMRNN
T2 sequence (P00747 97-580 partner limits assumed): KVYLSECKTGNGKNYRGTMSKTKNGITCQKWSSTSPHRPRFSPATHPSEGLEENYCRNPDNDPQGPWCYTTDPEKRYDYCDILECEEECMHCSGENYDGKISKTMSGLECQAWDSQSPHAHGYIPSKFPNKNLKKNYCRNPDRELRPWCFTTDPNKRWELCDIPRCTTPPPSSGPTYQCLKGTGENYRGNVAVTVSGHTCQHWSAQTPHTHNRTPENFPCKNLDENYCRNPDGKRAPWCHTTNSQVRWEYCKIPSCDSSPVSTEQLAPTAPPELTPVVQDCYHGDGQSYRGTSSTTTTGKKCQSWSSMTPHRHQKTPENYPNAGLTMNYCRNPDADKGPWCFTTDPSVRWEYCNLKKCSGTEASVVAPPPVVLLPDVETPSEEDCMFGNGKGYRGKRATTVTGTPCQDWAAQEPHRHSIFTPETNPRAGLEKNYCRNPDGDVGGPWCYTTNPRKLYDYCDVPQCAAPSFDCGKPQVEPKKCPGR

t-PA = biological target: T3, t-PA (Homo sapiens, UniProt P00750); test: Kass with t-PA, chromogenic substrate; details: substrate H-D-Ile-Pro-Arg-p-nitroanilide
T3 construct: purchased American Diagnostica, Greenwich, Conn
T3 sequence (P00750 36-562): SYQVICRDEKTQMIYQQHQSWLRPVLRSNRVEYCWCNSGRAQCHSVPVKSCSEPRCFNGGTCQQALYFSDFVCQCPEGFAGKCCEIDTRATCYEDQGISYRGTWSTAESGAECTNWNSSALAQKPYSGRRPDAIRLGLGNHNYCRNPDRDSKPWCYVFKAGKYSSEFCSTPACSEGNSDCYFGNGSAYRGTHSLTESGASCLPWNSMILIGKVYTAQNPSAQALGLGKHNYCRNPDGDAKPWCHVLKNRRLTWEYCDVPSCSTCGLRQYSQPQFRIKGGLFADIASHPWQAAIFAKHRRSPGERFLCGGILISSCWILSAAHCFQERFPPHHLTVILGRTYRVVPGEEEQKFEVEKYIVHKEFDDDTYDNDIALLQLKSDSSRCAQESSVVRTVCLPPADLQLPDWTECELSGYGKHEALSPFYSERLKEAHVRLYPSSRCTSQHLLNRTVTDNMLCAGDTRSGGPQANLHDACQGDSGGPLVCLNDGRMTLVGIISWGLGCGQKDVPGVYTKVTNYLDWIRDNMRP
Method: By substantially following the procedures described above for human thrombin, and using other human blood coagulation system serine proteases and proteases of the fibrinolytic system with the appropriate chromogenic substrates, identified below, selectivity of the compounds of the present invention with respect to the coagulation factor serine proteases and with respect to the fibrinolytic system serine proteases are evaluated as well as their substantial lack of interference with serine proteases of the fibrinolytic system. Thrombin inhibitors preferably should spare fibrinolysis induced by urokinase, tissue plasminogen activator (t-PA) and streptokinase. This would be important to the therapeutic use of such agents as an adjunct to streptokinase, t-PA or urokinase thrombolytic therapy and to the use of such agents as an endogenous fibrinolysis-sparing (with respect to t-PA and urokinase) antithrombotic agent. In addition to the lack of interference with the amidase activity of the fibrinolytic proteases, such fibrinolytic system sparing can be studied by the use of human plasma clots and their lysis by the respective fibrinolytic plasminogen activators.
Human plasmin is purchased from Boehringer Mannheim, Indianapolis, Ind.; nt-PA is purchased as single chain activity reference from American Diagnostica, Greenwich, Conn. modified-t-PA6 (mt-PA6) is prepared at Eli Lilly and Company by procedure known in the art (See, Burck, et al., J. Biol. Chem., 265, […] (1990). Plasmin chromogenic substrate H-D-Val-Leu-Lys-p-nitroanilide and tissue plasminogen activator (t-PA) substrate H-D-Ile-Pro-Arg-p-nitroanilide are purchased from Kabi Vitrum, Stockholm, Sweden.

factor Xa = biological target: T4, factor Xa (Homo sapiens, UniProt P00742); test: Kass with factor Xa, chromogenic substrate; details: substrate N-Benzoyl-Ile-Glu-Gly-Arg-p-nitroanilide
T4 construct: Human factors X, Xa, IXa, XIa, and XIIa are purchased; purchased Enzyme Research Laboratories, South Bend, Ind
T4 sequence (P00742 235-488 limits assumed): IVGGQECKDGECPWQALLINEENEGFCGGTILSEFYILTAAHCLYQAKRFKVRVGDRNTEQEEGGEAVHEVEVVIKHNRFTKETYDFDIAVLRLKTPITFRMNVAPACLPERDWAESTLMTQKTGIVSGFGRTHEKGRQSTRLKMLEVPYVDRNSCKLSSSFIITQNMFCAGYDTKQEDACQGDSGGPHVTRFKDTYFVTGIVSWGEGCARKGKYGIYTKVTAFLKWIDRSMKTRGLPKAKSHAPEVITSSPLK
T4 sequence (P00742 41-179 partner limits assumed): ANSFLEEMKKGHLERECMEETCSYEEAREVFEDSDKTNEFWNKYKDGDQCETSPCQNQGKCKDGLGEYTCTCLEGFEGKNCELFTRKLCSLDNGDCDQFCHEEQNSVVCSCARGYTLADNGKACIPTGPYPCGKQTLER

Human Thrombin = Human Thrombin (Homo sapiens, UniProt P00734); test: Inhibition of amidase activity of thrombin (Kass)
Human plasma [1] = test: Human plasma anticoagulation, prothrombin time (PT); details: concentration required to double the PT, linear extrapolation
Outline: (§1)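 Compounds added across a wide concentration range to plasma; PT measured with Thromboplastin-C, APTT after 120 s Actin incubation then 0.02 M CaCl2, TT with bovine thrombin (10 NIH units/mL). Clotting-time doubling concentrations estimated by linear extrapolation.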

Human plasma [2] = test: Human plasma anticoagulation, activated partial thromboplastin time (APTT); details: concentration required to double the APTT, linear extrapolation
Outline: as §1

Human plasma [3] = test: Human plasma anticoagulation, thrombin time (TT); details: concentration required to double the thrombin time, linear extrapolation
Outline: as §1

[4] = mean over a range of concentrations, […]

| Kass Human Thrombin (Human Thrombin; [4]) | Compound | Kass Trypsin (Bovine trypsin) | Kass Plasmin (Human plasmin) | Kass t-PA (t-PA) | Kass Xa (factor Xa) | Kass Human Thrombin (Human Thrombin) | Human Plasma Anticoagulation 2× Clotting time PT (Human plasma [1]) | Human Plasma Anticoagulation 2× Clotting time APTT (Human plasma [2]) | Human Plasma Anticoagulation 2× Clotting time TT (Human plasma [3]) |
| --- | --- | --- | --- | --- | --- | --- | --- | --- | --- |
| – | CCS(=O)(=O)N[C@H](Cc1ccccc1)C(=O)N1[C@H](C(=O)NCc2ccc(C(=N)N)cc2)C[C@@H]2CCCC[C@@H]21 (relative stereo) [Example 45, EtSO2 -Phe-cis-Ohi-p-NHCH2 C6 H4 C(NH)NH2.HCl] | 110 × 10^6 (L/mole) | 1.1 × 10^6 (L/mole) | 0.77 × 10^6 (L/mole) | 1.5 × 10^6 (L/mole) | 610 | 330 ng/mL | 200 ng/mL | 8 ng/mL |
| 0.09 × 10^6 (L/mole) | CCS(=O)(=O)N[C@H](Cc1ccccc1)C(=O)N1CCC[C@H]1C(=O)NCCc1ccc(NC(=N)N)cc1 [Example 35, EtSO2 -D-Phe-Pro-p-NHCH2 CH2 C6 H4 CNH(NH)NH2.HCl] | 0.04 × 10^6 (L/mole) | < 0.001 × 10^6 (L/mole) | < 0.001 × 10^6 (L/mole) | < 0.001 × 10^6 (L/mole) | – | 78,400 ng/mL | 50,400 ng/mL | 4,500 ng/mL |
| 770 × 10^6 (L/mole) | EtSO2 -D-Phe-Pro-p-NHCH2 --C6 H4 C(=NH)NH2.HCl [Example 23] | 21 × 10^6 (L/mole) | 0.44 × 10^6 (L/mole) | 0.31 × 10^6 (L/mole) | 0.14 × 10^6 (L/mole) | – | 120 ng/mL | 86 ng/mL | 7 ng/mL |
| 0.04 × 10^6 (L/mole) | N=C(N)c1cccc(CCCNC(=O)[C@@H]2CCCN2C(=O)[C@@H]2NCC[C@@H]3CCCC[C@@H]32)c1 [Example 33, 1-Piq-Pro-m-NHCH2 CH2 CH2 --C6 H4 C(=NH)NH2.HCl] | 0.02 × 10^6 (L/mole) | < 0.001 × 10^6 (L/mole) | < 0.001 × 10^6 (L/mole) | 0.04 × 10^6 (L/mole) | – | 70,900 ng/mL | 59,300 ng/mL | 18,900 ng/mL |
| 63 × 10^6 (L/mole) | N=C(N)NCCCCNC(=O)[C@@H]1CCCN1C(=O)[C@@H]1NCC[C@H]2CCCC[C@H]21 [Example 61, N-[4-[(aminoiminomethyl)amino]butyl]-1-[[(4aR,8aR)-decahydro-1(R)-isoquinolinyl]carbonyl]-1-prolinamide trihydrochloride] | 1.0 × 10^6 (L/mole) | 0.004 × 10^6 (L/mole) | 0.008 × 10^6 (L/mole) | 0.03 × 10^6 (L/mole) | – | 756 ng/mL | 679 ng/mL | 45 ng/mL |
| 0.29 × 10^6 (L/mole) | CCS(=O)(=O)N[C@H](Cc1ccccc1)C(=O)N1CCC[C@H]1C(=O)NCCc1cccc(C(=N)N)c1 [Example 27, EtSO2 -D-Phe-Pro-m-NHCH2 CH2 --C6 H4 C(=NH)NH2.HCl] | 0.02 × 10^6 (L/mole) | < 0.001 × 10^6 (L/mole) | 0.02 × 10^6 (L/mole) | 0.02 × 10^6 (L/mole) | – | 27,000 ng/mL | 27,800 ng/mL | 1,940 ng/mL |
| – | N=C(N)c1ccc(CNC(=O)[C@@H]2C[C@@H]3CCCC[C@@H]3N2C(=O)[C@H]2CCCCN2)cc1 (relative stereo) [Example 20, D-hPro-Ohi-p-NHCH2 C6 H4 C(NH)NH2.3HCl] | 19 × 10^6 (L/mole) | 0.10 × 10^6 (L/mole) | 0.0077 × 10^6 (L/mole) | 0.10 × 10^6 (L/mole) | 10 | 600 ng/mL | 550 ng/mL | 62 ng/mL |
| 0.76 × 10^6 (L/mole) | N=C(N)c1cccc(CCNC(=O)[C@@H]2CCCN2C(=O)[C@@H]2NCC[C@@H]3CCCC[C@@H]32)c1 [Example 29, 1-Piq-Pro-m-NHCH2 CH2 --C6 H4 C(=NH)NH2.2HCl] | 0.02 × 10^6 (L/mole) | < 0.001 × 10^6 (L/mole) | < 0.001 × 10^6 (L/mole) | 0.02 × 10^6 (L/mole) | – | 15,800 ng/mL | 9,800 ng/mL | 750 ng/mL |

| Compound | Kass Human Thrombin (Human Thrombin; [4]) | Kass Trypsin (Bovine trypsin) | Kass Plasmin (Human plasmin) | Kass t-PA (t-PA) | Kass Xa (factor Xa) | Kass Human Thrombin (Human Thrombin) | Human Plasma Anticoagulation 2× Clotting time PT (Human plasma [1]) | Human Plasma Anticoagulation 2× Clotting time APTT (Human plasma [2]) | Human Plasma Anticoagulation 2× Clotting time TT (Human plasma [3]) |
| --- | --- | --- | --- | --- | --- | --- | --- | --- | --- |
| O=C(O)CN[C@H](CC1CCCCC1)C(=O)N1CCC[C@H]1C(=O)NCC1=CCNCC1 [Example 58, HO2 CCH2 -D-Cha-Pro-4-NHCH2 -3,4-dehydro-piperidine.HCl] | 0.60 × 10^6 (L/mole) | 0.40 × 10^6 (L/mole) | < 0.001 × 10^6 (L/mole) | < 0.001 × 10^6 (L/mole) | < 0.001 × 10^6 (L/mole) | – | 11,400 ng/mL | 14,300 ng/mL | 710 ng/mL |
| N=C(N)c1ccc(CNC(=O)[C@@H]2CCCN2C(=O)[C@@H](CC2CCCCC2)NCC(=O)O)cc1 [Example 48, HOOCCH2 -D-Cha-Pro-p-NHCH2 C6 H4 C(NH)NH2.HCl] | 4,100 × 10^6 (L/mole) | 250 × 10^6 (L/mole) | 0.43 × 10^6 (L/mole) | 0.05 × 10^6 (L/mole) | 5.5 × 10^6 (L/mole) | – | 59 ng/mL | 33 ng/mL | 2 ng/mL |
| O=C(O)CN[C@H](CC1CCCCC1)C(=O)N1CCC[C@H]1C(=O)NCCC1CCNCC1 [Example 54, HO2 CCH2 -D-Cha-Pro-4-NHCH2 CH2 -piperidine.HCl] | 2.8 × 10^6 (L/mole) | 0.52 × 10^6 (L/mole) | 0.01 × 10^6 (L/mole) | < 0.001 × 10^6 (L/mole) | < 0.001 × 10^6 (L/mole) | – | 2,200 ng/mL | 3,300 ng/mL | 140 ng/mL |
| O=C(O)CN[C@H](CC1CCCCC1)C(=O)N1CCC[C@H]1C(=O)NCCCC1CCNCC1 [Example 55, HO2 CCH2 -D-Cha-Pro-4-NHCH2 CH2 CH2 -piperidine.HCl] | 0.01 × 10^6 (L/mole) | 0.01 × 10^6 (L/mole) | < 0.001 × 10^6 (L/mole) | < 0.001 × 10^6 (L/mole) | < 0.001 × 10^6 (L/mole) | – | > 91,000 ng/mL | > 91,000 ng/mL | 55,800 ng/mL |
| 1-Piq-Pro-p-NHCH2 C6 H4 C(NH)NH2.2HCl [Example 18] | 180 × 10^6 (L/mole) | 14 × 10^6 (L/mole) | 0.085 × 10^6 (L/mole) | 0.0094 × 10^6 (L/mole) | 0.21 × 10^6 (L/mole) | – | 170 ng/mL | 79 ng/mL | 7 ng/mL |
